Results as given in patent publication US4203980A, “Benzylpyrimidine derivatives” (Hoffmann-La Roche Inc., priority 1977, dated 1980).
pIC50: −log10 of the molar value.

What follows are molecules tested against DHFR (E. coli) (Escherichia coli, UniProt P0ABQ4) (assay: 50% inhibition of the bacterial dihydrofolic acid reductase (DHFR), E. coli).
Assay type: biochemical
Text: The compounds of formula I have antibacterial activity. More specifically, the compounds of formula I inhibit the bacterial dihydrofolic acid reductase (DHFR) and, moreover, potentiate the activity of sulfonamides and other dihydrofolic acid synthetase inhibitors. Exemplary of the sulfonamides which are potentiated by the compounds provided by the present invention are sulfadiazine, sulfadimethoxine, sulfadoxine, sulfamethoxazole, sulfisoxazole, sulfamoxole, 3-sulfanilamido-4,5-dimethylisoxazole, sulfalene, sulfamerazine, sulfameter, sulfamethazine and 6-methoxy-4-sulfanilamido-pyrimidine. […] Quantitatively, however, compared with known compounds, the compounds of formula I of the present invention are characterized by lower 50% inhibitory concentrations of the bacterial DHFR, for example, in the case of E. coli, and by substantially higher Q-values, that is 50% inhibition of the DHFR in the case of rats/50% inhibition of the DHFR in the case of E. coli, which represents a measurement of the selectivity of the inhibition of the bacterial DHFR.

Q: With `C=C(C)c1c(OCC)cc(Cc2cnc(N)nc2N)cc1OCC` [Compound 1, 2,4-diamino-5-(3,5-diethoxy-4-isopropenylbenzyl)-pyrimidine] as the molecule, how does the pIC50 read?
A: The pIC50 was 8.66.

Q: `C=C(C)c1c(OC)cc(Cc2cnc(N)nc2N)cc1OC` [Compound 2, 2,4-diamino-5-(4-isopropenyl-3,5-dimethoxybenzyl)-pyrimidine] was tested. Which pIC50 did it give?
A: Its pIC50 is 8.47.

Q: With `C=C(C)c1c(OC)cc(Cc2cnc(N)nc2N)cc1OCC` [Compound 3, 2,4-diamino-5-(3-ethoxy-4-isopropenyl-5-methoxybenzyl)-pyrimidine] as the molecule, how does the pIC50 read?
A: The pIC50 was 8.49.
